Results as given in PMC8880098, “Synthesis, Antibacterial Evaluation, and Computational Studies of a Diverse Set of Linezolid Conjugates” (Pharmaceuticals, 2022).
≈ marks a conversion by molar mass, not a printed value. Where two headings read alike, the source gives them in different places.

Legend:
[1] = test system: Bacillus subtilis ATCC 6633; assay: Antibacterial MIC, microdilution susceptibility test (CLSI); format: cell-based; details: Bacillus subtilis
Excerpt: (§1) The synthesized linezolid conjugates (3a–k, 5a–f, 7a–c, 9a–c, 11a–f, 13, and 15) were subjected for antimicrobial properties determination against Gram-positive (Staphylococcus aureus ATCC 6538, Bacillus subtilis ATCC 6633) and Gram-negative (Pseudomonas aeruginosa ATCC 15692, Escherichia coli ATCC 47076) bacteria by the standard technique.
(§2) Antibacterial properties of the synthesized compounds (3a–k, 5a–f, 7a–c, 9a–c, 11a–f, 13 and 15) were screened against Gram-positive (Staphylococcus aureus ATCC 6538, Bacillus subtilis ATCC 6633) and Gram-negative (Pseudomonas aeruginosa ATCC 15,692 and Escherichia coli ATCC 47076) bacteria utilizing the standard technique. Linezolid was used as a standard reference/drug in the current study. The tested bacterial strains were obtained from MERCIN Center, Faculty of Agriculture, Ain Shams University, Cairo, Egypt.
(§3) To determine the antibacterial activity, stock solutions of the tested compounds and standard reference were prepared with up to 100% DMSO and stored at […]. If necessary, the solutions were heated to 40–60 °C before testing to facilitate complete dissolution. Double distilled water was used in all dilutions prepared. […] A microdilution susceptibility test was used for MIC determination (Mueller–Hinton broth in 96-well plates) according to the CLSI (the Clinical and Laboratory Standards Institute, Malvern, PA, USA). The bacterial inoculum was adjusted to approximately 2.5–3 × 10^4 cells/mL in Mueller–Hinton broth and incubated in a ratio of 1:1 with the test derivatives in polystyrene 96-well flat-bottom microplates. Positive growth control (without test derivatives) and negative control (without bacteria) were included. The microplates were placed in an incubator set to 37 °C for 24 h. Absorbance was measured at 620 nm at the end of the incubation period. The cut-off level for follow-up studies was defined as a minimum of 90% inhibition of growth compared to the untreated sample. Experiments were conducted once in triplicate. For selected compounds, minimum inhibitory concentration (MIC) values were determined by dose–response experiments. Experiments were performed at least twice, in triplicate per concentration tested.

[2] = test system: Escherichia coli ATCC 47076; assay: as above; format: cell-based
Excerpt: as §1, §2, §3

[3] = test system: Pseudomonas aeruginosa ATCC 15692; assay: as above; format: cell-based
Excerpt: as §1, §2, §3

[4] = test system: Staphylococcus aureus ATCC 6538; assay: as above; format: cell-based; details: Staphylococcus aureus
Excerpt: as §1, §2, §3

[5] = test system: Bacillus subtilis ATCC 6633; assay: microbe, parasite or virus in culture; set-up: species or system bacteria; Broth microdilution MIC in Mueller-Hinton broth, absorbance at 620 nm; details: ATCC6633, 24 h, read-out: Observed MIC, uM (B. subtilis)
Excerpt: as §3, with “Antibacterial properties of the synthesized compounds (3a–k, 5a–f, 7a–c, 9a–c, 11a–f, 13 and 15) were screened against Gram-positive (Staphylococcus aureus ATCC 6538, Bacillus subtilis ATCC 6633) and Gram-negative (Pseudomonas aeruginosa ATCC 15,692 and Escherichia coli ATCC 47076) bacteria utilizing the standard technique. Linezolid was used as a standard reference/drug in the current study. The tested bacterial strains were obtained from MERCIN Center, Faculty of Agriculture, Ain Shams University, Cairo, Egypt. To” for “To”

[6] = test system: Staphylococcus aureus ATCC 6538; assay: microbe, parasite or virus in culture; set-up: species or system bacteria; Broth microdilution MIC in Mueller-Hinton broth, absorbance at 620 nm; details: ATCC6538, 24 h, read-out: Observed MIC, uM (S. aureus)
Excerpt: as §3, with “Antibacterial properties of the synthesized compounds (3a–k, 5a–f, 7a–c, 9a–c, 11a–f, 13 and 15) were screened against Gram-positive (Staphylococcus aureus ATCC 6538, Bacillus subtilis ATCC 6633) and Gram-negative (Pseudomonas aeruginosa ATCC 15,692 and Escherichia coli ATCC 47076) bacteria utilizing the standard technique. Linezolid was used as a standard reference/drug in the current study. The tested bacterial strains were obtained from MERCIN Center, Faculty of Agriculture, Ain Shams University, Cairo, Egypt. To” for “To”

[7] = ATCC6633, 24 h, Mueller–Hinton broth, 37 °C, 24 h, read-out: MIC, μg/mL ± SE, B. Subtilis (ATCC 6633)
[8] = ATCC47076, Mueller–Hinton broth, 37 °C, 24 h, read-out: MIC, μg/mL ± SE, E. Coli (ATCC 47076)
[9] = ATCC47076, value in parentheses, read-out: MIC (μmol), E. Coli (ATCC 47076) (converted)
[10] = ATCC15692, Mueller–Hinton broth, 37 °C, 24 h, read-out: MIC, μg/mL ± SE, P. Aeruginosa (ATCC 15692)
[11] = ATCC15692, value in parentheses, read-out: MIC (μmol), P. Aeruginosa (ATCC 15692) (converted)
[12] = ATCC6538, 24 h, Mueller–Hinton broth, 37 °C, 24 h, read-out: MIC, μg/mL ± SE, S. Aureus (ATCC 6538)

Row | SMILES | MIC [1, 7] | MIC [2, 8] | MIC [2, 9] | MIC [3, 10] | MIC [3, 11] | MIC [4, 12] | melting point | MIC [5] | MIC [6] | MIC ([1]; ATCC6633, as quoted in running text, read-out: MIC against B. subtilis) | MIC ([4]; ATCC6538, as quoted in running text, read-out: MIC against S. aureus)
1 | O=C(N[C@@H](Cc1ccccc1)C(=O)NC[C@H]1CN(c2ccc(N3CCOCC3)c(F)c2)C(=O)O1)c1cnccn1 [Compound 9c, N-((S)-1-((((S)-3-(3-Fluoro-4-morpholinophenyl)-2-oxooxazolidin-5-yl)methyl)amino) -1-oxo-3-phenylpropan-2-yl)pyrazine-2-carboxamide] | 32 ± 0.5 µg/mL | 32 ± 1 µg/mL | 58.3 µM | 32 ± 0.8 µg/mL | 58.3 µM | 32 ± 0.9 µg/mL | 172 to 174 °C | 58.3 µM (≈ 32 µg/mL) | 58.3 µM (≈ 32 µg/mL) |  | 
2 | O=C(NC[C@H]1CN(c2ccc(N3CCOCC3)c(F)c2)C(=O)O1)c1cccnc1 [Compound 7b, (S)-N-((3-(3-Fluoro-4-morpholinophenyl)-2-oxooxazolidin-5-yl)methyl)nicotinamide] | 2 ± 0.1 µg/mL | 32 ± 1 µg/mL | 79.9 µM | 32 ± 1.2 µg/mL | 79.9 µM | 8 ± 0.2 µg/mL | 182 to 184 °C | 5 µM (≈ 2 µg/mL) | 20 µM (≈ 8 µg/mL) |  | 
3 | O=C(NC[C@H]1CN(c2ccc(N3CCOCC3)c(F)c2)C(=O)O1)c1cccc([N+](=O)[O-])c1Cl [Compound 5f, (S)-2-Chloro-N-((3-(3-fluoro-4-morpholinophenyl)-2-oxooxazolidin-5-yl)methy-l)-3-nitrobenzamide] | 4 ± 0.3 µg/mL | 32 ± 0.6 µg/mL | 66.8 µM | 32 ± 1.4 µg/mL | 66.8 µM | 8 ± 0.2 µg/mL | 200 to 202 °C | 8.35 µM (≈ 4 µg/mL) | 16.7 µM (≈ 8 µg/mL) |  | 
4 | O=C(NC[C@H]1CN(c2ccc(N3CCOCC3)c(F)c2)C(=O)O1)c1cnccn1 [Compound 7c, (S)-N-((3-(3-Fluoro-4-morpholinophenyl)-2-oxooxazolidin-5-yl)methyl)pyrazine-2-carboxamide] | 2 ± 0.1 µg/mL | 32 ± 0.7 µg/mL | 79.7 µM | 32 ± 1.1 µg/mL | 79.7 µM | 8 ± 0.1 µg/mL | 190 to 192 °C | 4.98 µM (≈ 2 µg/mL) | 19.9 µM (≈ 8 µg/mL) |  | 
5 | C[C@H](NC(=O)OC(C)(C)C)C(=O)NC[C@H]1CN(c2ccc(N3CCOCC3)c(F)c2)C(=O)O1 [Compound 3g, Tert-butyl ((S)-1-((((S)-3-(3-fluoro-4-morpholinophenyl)-2-oxooxazolidin-5-yl)methyl)amino)-1-oxopropan-2-yl)carbamate] | 32 ± 2.4 µg/mL | 32 ± 2.7 µg/mL | 68.6 µM | 32 ± 1.2 µg/mL | 68.6 µM | 32 ± 1.5 µg/mL | 71 to 72 °C | 68.6 µM (≈ 32 µg/mL) | 68.6 µM (≈ 32 µg/mL) |  | 
6 | O=C1O[C@@H](CNCc2ccc(F)cc2F)CN1c1ccc(N2CCOCC2)c(F)c1 [Compound 11e, (S)-5-[{(2,4-Difluorobenzyl)amino}methyl]-3-(3-fluoro-4-morpholinophenyl) oxazolid-ine-2-one] | 32 ± 1.3 µg/mL | 32 ± 0.3 µg/mL | 75.9 µM | 32 ± 0.5 µg/mL | 75.9 µM | 32 ± 0.2 µg/mL | 74 to 76 °C | 75.9 µM (≈ 32 µg/mL) | 75.9 µM (≈ 32 µg/mL) |  | 
7 | O=C(N[C@@H](Cc1ccccc1)C(=O)NC[C@H]1CN(c2ccc(N3CCOCC3)c(F)c2)C(=O)O1)OCc1ccccc1 [Compound 3e, Benzyl ((S)-1-((((S)-3-(3-fluoro-4-morpholinophenyl)-2-oxooxazolidin-5-yl)methyl)amino)-1-oxo-3-phenylpropan-2-yl)carbamate] | 32 ± 1.9 µg/mL | 32 ± 1 µg/mL | 55.5 µM | 64 ± 2.1 µg/mL | 111 µM | 32 ± 2.2 µg/mL | 120 to 122 °C | 55.5 µM (≈ 32 µg/mL) | 55.5 µM (≈ 32 µg/mL) |  | 
8 | O=C(NC[C@H]1CN(c2ccc(N3CCOCC3)c(F)c2)C(=O)O1)c1ccccc1 [Compound 5a, (S)-N-((3-(3-Fluoro-4-morpholinophenyl)-2-oxooxazolidin-5-yl)methyl)benzamide] | 1 ± 0.1 µg/mL | 32 ± 1.6 µg/mL | 80.1 µM | 32 ± 0.8 µg/mL | 80.1 µM | 4 ± 0.2 µg/mL | 174 to 176 °C | 2.5 µM (≈ 1 µg/mL) | 10 µM (≈ 4 µg/mL) | 2.33 to 2.5 µM | 9.34 to 10 µM
9 | CC(C)C[C@H](NC(=O)c1cnccn1)C(=O)NC[C@H]1CN(c2ccc(N3CCOCC3)c(F)c2)C(=O)O1 [Compound 9a, N-((S)-1-((((S)-3-(3-Fluoro-4-morpholinophenyl)-2-oxooxazolidin-5-yl)methyl)amino) -4-methyl-1-oxopentan-2-yl)pyrazine-2-carboxamide] | 32 ± 2 µg/mL | 32 ± 1.6 µg/mL | 62.2 µM | 32 ± 1.3 µg/mL | 62.2 µM | 32 ± 0.4 µg/mL | 90 to 92 °C | 62.2 µM (≈ 32 µg/mL) | 62.2 µM (≈ 32 µg/mL) |  | 
10 | O=C(CCCC[C@@H]1SC[C@@H]2NC(=O)N[C@@H]21)NC[C@H]1CN(c2ccc(N3CCOCC3)c(F)c2)C(=O)O1 [Compound 15, N-(((S)-3-(3-Fluoro-4-morpholinophenyl)-2-oxooxazolidin-5-yl)methyl)-5-((3aS, 4S, 6aR)-2-oxohexahydro-1H-thieno [3,4-d]imidazol-4-yl)pentanamide] | 32 ± 0.2 µg/mL | 32 ± 0.7 µg/mL | 61.3 µM | 32 ± 0.3 µg/mL | 61.3 µM | 32 ± 0.4 µg/mL | 222 to 224 °C | 61.3 µM (≈ 32 µg/mL) | 61.3 µM (≈ 32 µg/mL) |  | 
11 | CC(C)[C@H](NC(=O)c1cnccn1)C(=O)NC[C@H]1CN(c2ccc(N3CCOCC3)c(F)c2)C(=O)O1 [Compound 9b, N-((S)-1-((((S)-3-(3-Fluoro-4-morpholinophenyl)-2-oxooxazolidin-5-yl)methyl)amino) -3-methyl-1-oxobutan-2-yl)pyrazine-2-carboxamide] | 32 ± 1.3 µg/mL | 32 ± 3.4 µg/mL | 63.9 µM | 32 ± 2.5 µg/mL | 63.9 µM | 32 ± 1.7 µg/mL | 94 to 96 °C | 63.9 µM (≈ 32 µg/mL) | 63.9 µM (≈ 32 µg/mL) |  | 
12 | CC(C)(C)OC(=O)NCC(=O)NC[C@H]1CN(c2ccc(N3CCOCC3)c(F)c2)C(=O)O1 [Compound 3f, Tert-butyl (S)-(2-(((3-(3-fluoro-4-morpholinophenyl)-2-oxooxazolidin-5-yl)methyl)amino)-2-oxoethyl)carbamate] | 8 ± 0.4 µg/mL | 32 ± 2.8 µg/mL | 70.7 µM | 32 ± 1.6 µg/mL | 70.7 µM | 32 ± 1.4 µg/mL | 54 to 56 °C | 17.7 µM (≈ 8 µg/mL) | 70.7 µM (≈ 32 µg/mL) |  | 
